# Measurements published in ChEMBL document CHEMBL4002586, “Aurone Mannich base derivatives as promising multifunctional agents with acetylcholinesterase inhibition, anti-β-amyloid aggragation and neuroprotective properties for the treatment of Alzheimer's disease” (Eur J Med Chem, 2017).
# The source made the active and inactive calls. No cut-off for these calls is given here.
# Key:
# [1] = biological target: T1, Amine oxidase [flavin-containing] A (Homo sapiens, UniProt P21397); assay: Inhibition of recombinant human MAO-A expressed in baculovirus infected BTI insect cells at 10 uM using kynuramine as substrate incubated for 30 mins by fluorescence assay relative to control; conditions: 0.5 h
# T1 sequence (P21397 whole entry): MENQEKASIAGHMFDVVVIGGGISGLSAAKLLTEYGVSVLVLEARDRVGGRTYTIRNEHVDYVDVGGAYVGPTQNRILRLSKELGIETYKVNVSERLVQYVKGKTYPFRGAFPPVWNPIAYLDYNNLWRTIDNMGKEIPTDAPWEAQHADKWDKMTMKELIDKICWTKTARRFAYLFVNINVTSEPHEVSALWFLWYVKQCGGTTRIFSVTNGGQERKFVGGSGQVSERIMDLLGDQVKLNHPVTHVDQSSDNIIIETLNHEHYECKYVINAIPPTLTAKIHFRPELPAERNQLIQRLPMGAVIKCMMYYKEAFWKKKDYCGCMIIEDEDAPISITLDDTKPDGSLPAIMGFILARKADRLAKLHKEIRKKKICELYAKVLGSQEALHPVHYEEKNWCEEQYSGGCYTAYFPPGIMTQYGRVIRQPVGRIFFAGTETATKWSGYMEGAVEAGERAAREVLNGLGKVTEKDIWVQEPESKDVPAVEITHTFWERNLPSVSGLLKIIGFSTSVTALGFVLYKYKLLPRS
# [2] = Antioxidant activity assessed as inhibition of AAPH-induced peroxyl radical generation at 5 uM measured as trolox equivalent preincubated for 15 mins followed by AAPH addition measured every 60 secs for 90 mins by ORAC-FL assay; assay type: functional
# [3] = Inhibition of Cu2+-mediated aggregation of human amyloid beta (1 to 42 residues) at 25 uM after 24 hrs by thioflavin T-based fluorometric assay relative to control; assay type: functional
# Acetylcholinesterase [4] = biological target: Acetylcholinesterase (Electrophorus electricus, UniProt O42275); assay: Inhibition of Electrophorus electricus AChE using acetylthiocholine iodide as substrate measured after 15 mins by Ellman's method
# Sequence of Acetylcholinesterase (Electrophorus electricus, UniProt O42275) (O42275 whole entry): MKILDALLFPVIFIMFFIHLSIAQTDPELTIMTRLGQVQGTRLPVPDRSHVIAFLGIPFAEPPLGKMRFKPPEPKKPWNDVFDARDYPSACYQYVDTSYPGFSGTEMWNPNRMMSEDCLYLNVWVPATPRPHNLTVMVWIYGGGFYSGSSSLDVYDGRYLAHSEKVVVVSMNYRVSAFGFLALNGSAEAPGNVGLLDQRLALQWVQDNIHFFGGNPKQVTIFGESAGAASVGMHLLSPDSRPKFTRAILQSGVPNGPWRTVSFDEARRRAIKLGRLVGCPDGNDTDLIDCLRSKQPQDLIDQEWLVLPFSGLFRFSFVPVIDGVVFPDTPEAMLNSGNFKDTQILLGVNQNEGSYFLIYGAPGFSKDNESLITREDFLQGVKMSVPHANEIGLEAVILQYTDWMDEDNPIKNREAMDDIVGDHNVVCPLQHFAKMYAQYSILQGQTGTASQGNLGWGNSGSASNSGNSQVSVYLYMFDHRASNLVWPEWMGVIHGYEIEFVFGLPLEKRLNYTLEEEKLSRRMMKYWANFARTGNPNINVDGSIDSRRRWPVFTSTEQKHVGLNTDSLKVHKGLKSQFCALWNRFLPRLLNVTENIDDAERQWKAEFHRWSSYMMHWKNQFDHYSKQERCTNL
# [5] = biological target: butyrylcholinesterase (BuChE) (Rattus norvegicus, UniProt Q9JKC1); assay: Inhibition of BuChE in rat serum at 50 uM using butyrylthiocholine as substrate measured after 15 mins by Ellman's method relative to control; conditions: probe butyrylthiocholine
# Sequence of butyrylcholinesterase (BuChE) (Q9JKC1 whole entry): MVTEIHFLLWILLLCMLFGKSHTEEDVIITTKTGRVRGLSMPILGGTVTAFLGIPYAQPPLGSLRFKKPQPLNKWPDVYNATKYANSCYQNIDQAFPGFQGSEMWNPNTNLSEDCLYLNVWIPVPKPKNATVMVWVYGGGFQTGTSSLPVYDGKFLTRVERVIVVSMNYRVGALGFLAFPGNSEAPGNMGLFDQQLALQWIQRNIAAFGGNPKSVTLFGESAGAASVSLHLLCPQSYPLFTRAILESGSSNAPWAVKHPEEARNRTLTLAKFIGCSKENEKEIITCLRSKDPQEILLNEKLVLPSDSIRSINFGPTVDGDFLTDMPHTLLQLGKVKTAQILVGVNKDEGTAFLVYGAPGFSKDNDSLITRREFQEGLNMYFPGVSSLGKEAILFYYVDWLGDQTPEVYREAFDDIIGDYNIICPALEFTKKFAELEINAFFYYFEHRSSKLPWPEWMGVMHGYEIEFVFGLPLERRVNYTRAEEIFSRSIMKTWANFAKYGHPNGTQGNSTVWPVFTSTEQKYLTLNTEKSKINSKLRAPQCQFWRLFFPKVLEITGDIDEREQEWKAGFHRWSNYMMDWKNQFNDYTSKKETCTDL
# Acetylcholinesterase [6] = biological target: Acetylcholinesterase (Homo sapiens, UniProt P22303); assay: Inhibition of human erythrocyte AChE using acetylthiocholine iodide as substrate measured after 15 mins by Ellman's method
# Sequence of Acetylcholinesterase (Homo sapiens, UniProt P22303) (P22303 whole entry, the tested form may be a part): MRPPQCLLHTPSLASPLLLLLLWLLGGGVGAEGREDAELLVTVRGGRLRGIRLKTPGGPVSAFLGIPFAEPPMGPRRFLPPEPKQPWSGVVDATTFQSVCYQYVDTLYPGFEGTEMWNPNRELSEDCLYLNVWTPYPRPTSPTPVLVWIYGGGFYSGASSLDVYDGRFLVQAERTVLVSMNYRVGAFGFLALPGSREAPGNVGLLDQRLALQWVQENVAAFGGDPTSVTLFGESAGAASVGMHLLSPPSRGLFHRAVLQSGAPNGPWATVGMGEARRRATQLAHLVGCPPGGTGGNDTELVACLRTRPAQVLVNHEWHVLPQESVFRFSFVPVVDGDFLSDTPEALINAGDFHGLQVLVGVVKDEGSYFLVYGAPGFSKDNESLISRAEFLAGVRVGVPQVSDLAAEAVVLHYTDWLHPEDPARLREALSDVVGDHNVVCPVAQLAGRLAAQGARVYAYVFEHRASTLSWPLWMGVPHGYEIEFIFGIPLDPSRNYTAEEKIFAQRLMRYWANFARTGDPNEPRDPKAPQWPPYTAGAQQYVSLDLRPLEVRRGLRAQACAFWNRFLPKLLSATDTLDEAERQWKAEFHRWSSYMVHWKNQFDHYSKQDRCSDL
# [7] = biological target: Amyloid-beta precursor protein (Homo sapiens) (UniProt P05067); assay: Inhibition of self-induced aggregation of HFIP-treated human amyloid beta (1 to 42 residues) at 25 uM after 24 hrs by thioflavin T-based fluorometric assay relative to control
# Sequence of Amyloid-beta precursor protein (Homo sapiens) (P05067 whole entry, the tested form may be a part): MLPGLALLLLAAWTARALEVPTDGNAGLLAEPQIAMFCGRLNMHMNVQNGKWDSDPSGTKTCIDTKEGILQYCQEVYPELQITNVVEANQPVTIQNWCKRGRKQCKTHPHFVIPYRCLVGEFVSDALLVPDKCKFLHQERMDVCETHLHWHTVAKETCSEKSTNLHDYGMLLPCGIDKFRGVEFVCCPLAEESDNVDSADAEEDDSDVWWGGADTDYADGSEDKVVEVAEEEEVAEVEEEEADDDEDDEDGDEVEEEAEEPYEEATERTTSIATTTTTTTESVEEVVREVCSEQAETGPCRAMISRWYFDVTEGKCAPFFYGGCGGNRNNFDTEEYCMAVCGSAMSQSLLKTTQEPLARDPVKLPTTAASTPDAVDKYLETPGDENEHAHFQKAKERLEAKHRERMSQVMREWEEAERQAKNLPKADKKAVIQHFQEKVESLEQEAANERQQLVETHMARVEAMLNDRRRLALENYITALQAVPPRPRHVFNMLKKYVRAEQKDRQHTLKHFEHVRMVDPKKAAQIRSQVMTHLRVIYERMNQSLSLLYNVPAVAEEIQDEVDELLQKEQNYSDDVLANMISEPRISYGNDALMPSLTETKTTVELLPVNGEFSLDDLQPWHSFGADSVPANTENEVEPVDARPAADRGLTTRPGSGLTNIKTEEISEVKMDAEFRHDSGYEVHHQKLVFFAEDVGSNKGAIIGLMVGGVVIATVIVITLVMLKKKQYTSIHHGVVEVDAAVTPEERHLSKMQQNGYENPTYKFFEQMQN
# [8] = biological target: T2, Amine oxidase [flavin-containing] B (Homo sapiens, UniProt P27338); assay: Inhibition of recombinant human MAO-B expressed in baculovirus infected BTI insect cells at 10 uM using kynuramine as substrate incubated for 30 mins by fluorescence assay relative to control; conditions: 0.5 h
# T2 sequence (P27338 whole entry): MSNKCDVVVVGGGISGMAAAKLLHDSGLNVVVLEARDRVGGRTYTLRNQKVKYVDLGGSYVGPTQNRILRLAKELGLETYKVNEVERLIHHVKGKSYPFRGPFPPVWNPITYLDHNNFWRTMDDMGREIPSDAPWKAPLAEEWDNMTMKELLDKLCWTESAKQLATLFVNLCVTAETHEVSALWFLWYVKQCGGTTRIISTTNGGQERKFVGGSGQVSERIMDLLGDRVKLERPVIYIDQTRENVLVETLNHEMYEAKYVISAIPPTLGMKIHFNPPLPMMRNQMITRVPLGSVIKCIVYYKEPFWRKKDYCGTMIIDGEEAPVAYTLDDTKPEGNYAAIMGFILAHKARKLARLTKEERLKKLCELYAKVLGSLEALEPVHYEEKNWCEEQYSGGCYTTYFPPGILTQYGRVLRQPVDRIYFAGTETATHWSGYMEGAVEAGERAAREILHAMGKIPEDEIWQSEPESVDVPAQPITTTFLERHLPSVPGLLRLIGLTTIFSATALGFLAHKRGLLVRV
# Acetylcholinesterase [9] = biological target: T3, Acetylcholinesterase (Rattus norvegicus, UniProt P37136); assay: Inhibition of AChE in rat brain cortex homogenates using acetylthiocholine iodide as substrate in presence of BuChE inhibitor tetraisopropyl pyrophosphoramide measured after 15 mins by Ellman's method
# T3 sequence (P37136 whole entry): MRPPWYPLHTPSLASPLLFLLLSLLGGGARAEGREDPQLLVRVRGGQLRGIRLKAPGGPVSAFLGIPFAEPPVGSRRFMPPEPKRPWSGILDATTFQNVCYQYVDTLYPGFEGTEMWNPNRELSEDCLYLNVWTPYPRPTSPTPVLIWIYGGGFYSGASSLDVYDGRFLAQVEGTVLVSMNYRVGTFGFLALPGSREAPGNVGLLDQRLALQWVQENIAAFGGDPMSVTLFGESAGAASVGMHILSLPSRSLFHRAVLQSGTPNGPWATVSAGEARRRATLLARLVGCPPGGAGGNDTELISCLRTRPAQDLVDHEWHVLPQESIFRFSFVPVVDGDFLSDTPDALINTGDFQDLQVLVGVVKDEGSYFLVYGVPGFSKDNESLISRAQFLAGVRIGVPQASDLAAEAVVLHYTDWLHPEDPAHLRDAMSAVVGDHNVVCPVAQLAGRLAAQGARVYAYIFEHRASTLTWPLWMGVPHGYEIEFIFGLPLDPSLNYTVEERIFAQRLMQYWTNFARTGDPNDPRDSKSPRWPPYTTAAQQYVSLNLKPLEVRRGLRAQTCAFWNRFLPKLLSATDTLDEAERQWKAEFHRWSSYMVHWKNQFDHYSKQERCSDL
# PC-12 [10] = assay: Neuroprotective activity against H2O2-induced damage in rat PC12 cells assessed as reduction in LDH release at 100 uM pretreated for 2 hrs followed by H2O2 challenge measured after 24 hrs; assay type: functional, cell-based
# PC-12 [11] = assay: Neuroprotective activity against H2O2-induced damage in rat PC12 cells assessed as increase in cell viability at 100 uM pretreated for 2 hrs followed by H2O2 challenge measured after 24 hrs by MTT assay; assay type: functional, cell-based
structure (smiles),measurement,setting,value
COc1cc2c(cc1OC)C(=O)/C(=C/c1ccc(CN3CCN(C)CC3)c(O)c1)O2,inhibition at 10 µM,[1],9.2%
same,Activity,[2],1.78 equiv
same,inhibition,[3],35.1%
same,IC50,Acetylcholinesterase [4],11.9 µM
same,"inhibition at 0.25 h, 50 µM",[5],< 5%
same,IC50,Acetylcholinesterase [6],14 µM
same,inhibition,[7],38.6%
same,inhibition at 10 µM,[8],1%
same,IC50,Acetylcholinesterase [9],16.3 µM
Cc1c(C)c2c(c(C)c1O)CCC(C)(C(=O)O)O2 (stereo not drawn),Activity,PC-12 [10],Active
same,Activity,PC-12 [11],Active
COc1cc2c(cc1OC)C(=O)/C(=C/c1cccc(O)c1)O2,inhibition at 10 µM,[1],17.2%
same,Activity,[2],1.51 equiv
same,inhibition,[3],28.9%
same,IC50,Acetylcholinesterase [4],36.3 µM
same,"inhibition at 0.25 h, 50 µM",[5],< 5%
same,inhibition,[7],33.6%
same,inhibition at 10 µM,[8],37%
same,IC50,Acetylcholinesterase [9],131 µM
COc1cc(/C=C/C(=O)CC(=O)/C=C/c2ccc(O)c(OC)c2)ccc1O,inhibition,[3],67.2%
CCN(Cc1ccc(/C=C2\Oc3cc(OC)c(OC)cc3C2=O)cc1O)Cc1ccccc1OC,inhibition at 10 µM,[1],9.7%
same,Activity,[2],1.47 equiv
same,inhibition,[3],71.2%
same,IC50,Acetylcholinesterase [4],37 µM
same,"inhibition at 0.25 h, 50 µM",[5],5.21%
same,inhibition,[7],74.9%
same,inhibition at 10 µM,[8],26.4%
same,IC50,Acetylcholinesterase [9],44.9 µM
COc1cc2c(cc1OC)C(=O)/C(=C/c1ccc(CN(C)Cc3ccccc3)c(O)c1)O2,inhibition at 10 µM,[1],19.4%
same,Activity,[2],1.62 equiv
same,inhibition,[3],70.1%
same,IC50,Acetylcholinesterase [4],9.1 µM
same,"inhibition at 0.25 h, 50 µM",[5],< 5%
same,IC50,Acetylcholinesterase [6],26.3 µM
same,inhibition,[7],51.5%
same,inhibition at 10 µM,[8],17.8%
same,IC50,Acetylcholinesterase [9],20 µM
COc1ccccc1CN(C)Cc1ccc(/C=C2\Oc3cc(OC)c(OC)cc3C2=O)cc1O,inhibition at 10 µM,[1],16.3%
same,Activity,[2],1.35 equiv
same,inhibition,[3],55.8%
same,IC50,Acetylcholinesterase [4],28.9 µM
same,"inhibition at 0.25 h, 50 µM",[5],< 5%
same,inhibition,[7],55.1%
same,inhibition at 10 µM,[8],8.4%
same,IC50,Acetylcholinesterase [9],74.4 µM
COc1cc2c(cc1OC)C(=O)/C(=C/c1ccc(CN3CCCC3)c(O)c1)O2,inhibition at 10 µM,[1],62.9%
same,Activity,[2],1.79 equiv
same,inhibition,[3],38.8%
same,IC50,Acetylcholinesterase [4],2.7 µM
same,"inhibition at 0.25 h, 50 µM",[5],19%
same,IC50,Acetylcholinesterase [6],1.32 µM
same,inhibition,[7],57.2%
same,inhibition at 10 µM,[8],37.9%
same,IC50,Acetylcholinesterase [9],0.246 µM
COc1cc2c(cc1OC)C(=O)/C(=C/c1ccc(CN3CCOCC3)c(O)c1)O2,inhibition at 10 µM,[1],12.1%
same,Activity,[2],1.58 equiv
same,inhibition,[3],28.5%
same,IC50,Acetylcholinesterase [4],20.2 µM
same,"inhibition at 0.25 h, 50 µM",[5],< 5%
same,IC50,Acetylcholinesterase [6],6 µM
same,inhibition,[7],31.5%
same,inhibition at 10 µM,[8],3.3%
same,IC50,Acetylcholinesterase [9],8.66 µM
